Reference: patent US11247983B2, “Compounds and methods for inhibiting JAK” (Dizal (Jiangsu) Pharmaceutical Co., Ltd., priority 2015, dated 2022)

Experiments:
[1] = system: NCI-H1975 tumor xenografts; test: In vivo efficacy in the H1975 xenograft model (Example 69); design: species or system mice; details: oral, 18 days; osimertinib 2.5 mg/kg QD, Example 32 12.5, 25 or 50 mg/kg BID; combination compared to osimertinib alone, single agent relative to vehicle
Procedure: (§1) Tumor volume was measured twice a week.

[2] = system: pSTAT3 (Y705) in NCI-H1975 tumors; test: pSTAT3 (Y705) levels in NCI-H1975 tumor lysates (pharmacodynamics, Example 69); format: in vivo, mice; details: Example 32 12.5, 25, 50 mg/kg BID, after one day of treatment, samples 2, 8 and 24 hours after the AM dose
Procedure: MATERIALS AND METHODS: NCI-H1975 cells (a human NSCLC cell line with L858R and T790M mutations in the EGFR gene) tumor cells were implanted subcutaneously in female NCr nude mice (Taconic Laboratories), 3×10^6 cells/mouse. […] Drug levels in plasma were measured by LC/MS, using a Linear Ion Trap Quadrupole LC/MS/MS Mass Spectrometer (QTRAP 5500 model 1024945-BB, AB Sciex Instruments), with separation on a Waters Xbridge C18 column.

[3] = system: pSTAT3 (Y705) in PC-9 tumors; test: pSTAT3 (Y705) levels in PC-9 tumor lysates (Western blot, Example 70); format: in vivo, mice; details: Example 32 12.5 and 50 mg/kg BID with gefitinib, last day of treatment, 2, 8 and 24 hours after the AM dose
[4] = system: NCI-H1650 tumor xenografts; test: In vivo efficacy in the H1650 xenograft model (Example 71); design: species or system mice; details: oral, 21 days; gefitinib 6.25 mg/kg QD, Example 32 25 or 50 mg/kg BID; combination compared to single agent gefitinib
Procedure: as §1

[5] = system: pSTAT3 (Y705) in NCI-H1650 tumors; test: pSTAT3 levels in NCI-H1650 tumor lysates (Western blot, Example 71); format: in vivo, mice; details: measured after one day of treatment
Procedure: Twenty-three days after cell implantation, the mice were randomized into 6 groups (9 mice/group, average tumor volume 257 mm^3, range 205-303 mm^3). […] Drug levels in plasma were measured by LC/MS, using a Linear Ion Trap Quadrupole LC/MS/MS Mass Spectrometer (QTRAP 5500 model 1024945-BB, AB Sciex Instruments), with separation on a Waters Xbridge C18 column.

[6] = system: LG1049 non-small cell lung cancer PDX tumor xenografts; test: In vivo efficacy in the LG1049 xenograft PDX model (Example 72)
Procedure: SUMMARY: LG1049 non-small cell lung cancer PDX tumor xenografts were grown subcutaneously in female NSG mice. […] Tumor volume was measured twice a week.
(§2) MATERIALS AND METHODS: LG1049 tumor fragments were implanted subcutaneously in female NSG mice (JAX Stock No. 005557).

[7] = system: pSTAT3 (Y705) in LG1049 tumors; test: pSTAT3 levels in LG1049 tumor lysates (Western blot, Example 72); format: in vivo, mice; details: Example 32 25 mg/kg BID, 5 days of treatment, 4H after the final dose
Description: MATERIALS AND METHODS: LG1049 tumor fragments were implanted subcutaneously in female NSG mice (JAX Stock No. 005557). Once tumor volumes reached ˜125-275 mm^3, mice were randomized into 5 groups (10 mice/group, average tumor volume 189 mm^3, range 138-253 mm^3).

[8] = system: NCI-H1975 tumor xenografts; test: In vivo efficacy of intermittent Example 32 dosing schedules in the H1975 xenograft model (Example 73); design: species or system mice; details: oral, 19 to 29 days; osimertinib 2.5 mg/kg QD, Example 32 12.5, 25 or 50 mg/kg BID on continuous or intermittent schedules; combination compared to osimertinib alone, single agent relative to vehicle
Procedure: as §1
MATERIALS AND METHODS: NCI-H1975 cells (a human NSCLC cell line with L858R and T790M mutations in the EGFR gene), were implanted subcutaneously in female NCr nude mice (Taconic Laboratories), 3×10^6 cells/mouse.

[9] = system: pEGFR (pY1173) in LG1049 tumors; test: pEGFR levels in LG1049 tumor lysates (Western blot, Example 72); format: in vivo, mice; details: osimertinib 25 mg/kg QD, 5 days of treatment, 4H after the final dose
Description: as §2

| SMILES | antitumor activity (tumor volume, FIG. 19) [1] | pSTAT3 knockdown in tumors (FIG. 21) [2] | duration of pSTAT3 knockdown in tumors (FIG. 24) [3] | antitumor activity (tumor volume, FIG. 25) [4] | knockdown of pSTAT3 in tumors (FIG. 27) [5] | body weight (FIG. 29) ([6]; mouse, in vivo) | antitumor activity / tumor regression (tumor volume, FIG. 28) ([6]; oral, osimertinib 25 mg/kg QD 28 days, Example 32 25 mg/kg BID (18 days as single agent), combination compared to osimertinib alone, single agent relative to vehicle) | knockdown of pSTAT3 in tumors (FIG. 30) [7] | antitumor activity (tumor volume, FIG. 31A-31E) [8] | body weight (FIG. 29) ([6]; LG1049 tumor bearing NSG mice, weight loss attributed to tumor growth) | tumor regrowth when treatment was stopped after 28 days ([6]; after 28 days of dosing) | knockdown of pEGFR in tumors (FIG. 30) [9] |
| --- | --- | --- | --- | --- | --- | --- | --- | --- | --- | --- | --- | --- |
| COc1nn(C)cc1Nc1nccc(-c2c[nH]c3c(NC(=O)[C@@H](C)N4CCN(C)CC4)cccc23)n1 [Example 32, (2R)-N-(3-{2-[(3-methoxy-1-methyl-1H-pyrazol-4-yl)amino]pyrimidin-4-yl}-1H-indol-7-yl)-2-(4-methylpiperazin-1-yl)propanamide] | only weak antitumor activity | dose dependent increase in pSTAT3 knockdown | dose dependent increase in the duration of pSTAT3 knockdown | only modest antitumor activity | Knockdown of pSTAT3 was observed | significant weight loss | no significant activity relative to vehicle control treatment | robust knockdown | no significant activity relative to vehicle control treatment |  |  |  |
| C=CC(=O)Nc1cc(Nc2nccc(-c3cn(C)c4ccccc34)n2)c(OC)cc1N(C)CCN(C)C [osimertinib, reference compound] |  |  |  |  |  |  |  |  |  | lack of significant weight loss | tumors rapidly regrew | robust knockdown |
